In patent US20220213092A1, “BICYCLIC PYRAZOLE BRUTON'S TYROSINE KINASE INHIBITORS” (AbbVie Inc., priority 2020, published 2022):

How the values were obtained:
BMX = target: T1, BMX (Homo sapiens, UniProt P51813); experiment: Other kinase MSA: BMX; type: biochemical
T1 sequence (P51813 1-675): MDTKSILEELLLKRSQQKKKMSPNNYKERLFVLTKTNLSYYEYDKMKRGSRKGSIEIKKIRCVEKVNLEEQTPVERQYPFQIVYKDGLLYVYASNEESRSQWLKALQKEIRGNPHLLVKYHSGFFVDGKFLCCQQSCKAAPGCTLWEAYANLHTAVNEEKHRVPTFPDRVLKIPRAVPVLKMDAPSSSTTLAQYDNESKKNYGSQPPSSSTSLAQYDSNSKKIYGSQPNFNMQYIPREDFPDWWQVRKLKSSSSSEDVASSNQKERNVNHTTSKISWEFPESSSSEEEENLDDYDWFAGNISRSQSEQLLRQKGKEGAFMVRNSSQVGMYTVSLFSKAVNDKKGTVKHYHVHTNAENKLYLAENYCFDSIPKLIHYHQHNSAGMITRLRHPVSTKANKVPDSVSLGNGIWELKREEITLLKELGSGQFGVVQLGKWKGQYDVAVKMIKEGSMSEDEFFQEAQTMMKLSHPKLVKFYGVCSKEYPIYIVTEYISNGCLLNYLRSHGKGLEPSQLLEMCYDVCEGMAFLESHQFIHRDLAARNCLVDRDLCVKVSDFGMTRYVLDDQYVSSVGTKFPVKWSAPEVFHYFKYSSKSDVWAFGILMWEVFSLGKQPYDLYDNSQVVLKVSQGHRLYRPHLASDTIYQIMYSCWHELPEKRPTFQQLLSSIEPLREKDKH
Method: Kinase activity, unless otherwise indicated, was measured in vitro using an electrophoretic mobility shift assay (MSA). The phosphorylation of a peptide substrate by BTK and other kinases was measured. The kinase reactions were assembled in a total volume of 25 μL per well in 384 well plates. The following was added to each well: compound buffer (or control); enzyme buffer; and substrate buffer, as further described below.
Enzyme and compound/inhibitor were optionally pre-incubated. To each well was added: 8 μL of 2.5×ATP and substrate in 1× Master Buffer (1× Master Buffer as described above). The plate was incubated at room temperature for 3 hours. […] OG488 was Oregon Green dye, which was conjugated to the peptide substrate. […] The kinase activity for the kinases in Table 3 were measured at 3 hours incubation time, except that in the case of MAP2K1 and MAP2K2 assay, pre-activation of ERK was done for 30 min with 6 μM of ATP, and then the detection of activated ERK in the presence of compounds was done after 60 minutes of incubation.
The terminated reactions were analyzed using a 12 channel LABCHIP® 3000 microfluidic detection instrument (available from Caliper Life Sciences, Waltham, Mass.). […] Change in the relative fluorescence intensity of the substrate and product peaks was the parameter measured, reflecting enzyme activity. […]

BTK = target: T2, BTK (Homo sapiens, UniProt Q06187); experiment: BTK kinase electrophoretic mobility shift assay (MSA); type: biochemical; conditions: 50 μM ATP, 0.5 nM BTK enzyme (Nanosyn-293HEK, WT), 3 hours at 25° C.; all examples except 50, 51, 62 and 63; read-out: BTK IC50
T2 construct: purchased Nanosyn, Santa Clara, Calif; host or cells: 293HEK
T2 sequence (Q06187 whole entry): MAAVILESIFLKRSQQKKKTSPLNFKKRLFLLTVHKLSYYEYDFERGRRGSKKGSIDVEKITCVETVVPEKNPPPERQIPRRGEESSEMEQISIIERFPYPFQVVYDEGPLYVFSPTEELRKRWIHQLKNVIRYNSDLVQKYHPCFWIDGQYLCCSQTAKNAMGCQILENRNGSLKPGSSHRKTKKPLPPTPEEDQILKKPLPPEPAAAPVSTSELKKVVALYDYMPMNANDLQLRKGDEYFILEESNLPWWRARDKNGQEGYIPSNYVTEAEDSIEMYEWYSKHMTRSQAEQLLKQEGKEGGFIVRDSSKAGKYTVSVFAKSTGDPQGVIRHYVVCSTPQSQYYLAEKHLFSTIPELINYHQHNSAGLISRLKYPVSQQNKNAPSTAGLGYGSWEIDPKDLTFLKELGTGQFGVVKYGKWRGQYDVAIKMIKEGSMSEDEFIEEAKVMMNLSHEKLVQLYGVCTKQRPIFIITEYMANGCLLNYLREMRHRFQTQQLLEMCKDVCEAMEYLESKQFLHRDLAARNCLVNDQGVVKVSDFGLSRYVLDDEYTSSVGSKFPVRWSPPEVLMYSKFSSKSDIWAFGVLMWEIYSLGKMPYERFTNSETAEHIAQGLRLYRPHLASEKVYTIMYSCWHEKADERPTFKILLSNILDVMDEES

IC50 (BMX): 15.2 nM
IC50 (BTK): 1.1 nM
Compound: C=CC(=O)N1CCN([C@@H]2CCNc3c2nn(-c2ccc(Oc4ccccc4)cc2)c3C(N)=O)CC1 [Example 6, (7R)-2-(4-phenoxyphenyl)-7-[4-(prop-2-enoyl)piperazin-1-yl]-4,5,6,7-tetrahydro-2H-pyrazolo[4,3-b]pyridine-3-carboxamide]
